# Like-named read-outs stand apart in the source and are kept apart here.
# What was measured:
# C2C12 myotubes = settings: for Viability (composite Z-score): normalized score vs mock-treated (DMSO) wells
# nuOXPHOS transcripts = assay type: cell-based, mouse; settings: for nucOX (composite Z-score): normalized score vs mock-treated (DMSO) wells
# OXPHOS gene expression = assay type: cell-based, mouse; settings: for GE-HTS (composite Z-score): normalized score vs mock-treated (DMSO) wells
# reactive oxygen species = assay type: cell-based, mouse; settings: for ROS (composite Z-score): normalized score vs mock-treated (DMSO) wells
# [1] = test system: mitochondrial membrane potential; assay type: cell-based, mouse; settings: for ΔΨm (composite Z-score): normalized score vs mock-treated (DMSO) wells
# cytochrome c = assay type: cell-based, mouse; settings: for cyt c (composite Z-score): normalized score vs mock-treated (DMSO) wells
# mtOXPHOS transcripts = assay type: cell-based, mouse; settings: for mitoOX (composite Z-score): normalized score vs mock-treated (DMSO) wells
# [2] = test system: cellular dehydrogenase activity; settings: for MTT (composite Z-score): normalized score vs mock-treated (DMSO) wells
# [3] = composite Z-score vs mock-treated (DMSO) wells, concentration of each compound in μM
# [4] = composite Z-score vs DMSO wells, Conc 20 μM
# [5] = composite Z-score vs mock-treated (DMSO) wells, Conc 20 μM
# [6] = composite Z-score vs DMSO, Conc 20 μM
# [7] = 20 μM, composite Z-score vs DMSO
# [8] = normalized composite Z-score vs mock-treated (DMSO) wells, Conc 20 μM
# cytochrome c, sequence (P62897 whole entry): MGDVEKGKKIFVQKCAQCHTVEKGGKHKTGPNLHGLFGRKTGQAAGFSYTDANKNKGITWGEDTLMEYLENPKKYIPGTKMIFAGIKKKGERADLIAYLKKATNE
molecule,measurement,setting,value
c1ccc2c3c([nH]c2c1)[C@H]1[C@H]2CC[C@H]([C@@H]4CCCN[C@@H]42)N1CC3 [nitrarine],Viability,C2C12 myotubes; [3],−0.068
same,nucOX,nuOXPHOS transcripts; [3],−0.303
same,GE-HTS,OXPHOS gene expression; [3],−0.352
same,ROS,reactive oxygen species; [3],0.458
same,ΔΨm,[1]; [3],−0.986
same,cyt c,cytochrome c; [3],0.040
same,mitoOX,mtOXPHOS transcripts; [3],−0.378
same,MTT,[2]; [3],−1.978
Cc1onc(-c2c(Cl)cccc2Cl)c1C(=O)N[C@@H]1C(=O)N2[C@@H]1SC(C)(C)[C@@H]2C(=O)O [dicloxacillin sodium],Viability,C2C12 myotubes; [4],−0.214
same,nucOX,nuOXPHOS transcripts; [4],0.533
same,GE-HTS,OXPHOS gene expression; [4],0.661
same,ROS,reactive oxygen species; [4],−0.070
same,ΔΨm,[1]; [4],0.196
same,cyt c,cytochrome c; [4],−1.277
same,mitoOX,mtOXPHOS transcripts; [4],0.870
same,MTT,[2]; [4],−0.587
"COC(=O)[C@@H]1OC(=O)[C@H]2O[C@@]23[C@@]1(C)CCC1[C@@]2(C)CCC(=O)C(C)(C)C2C[C@@H](OC(C)=O)[C@]13C (some centres unmarked) [dihydrogeduninic acid, methyl ester]",Viability (composite Z-score),C2C12 myotubes; Conc 20 μM,0.488
same,nucOX (composite Z-score),nuOXPHOS transcripts; Conc 20 μM,0.881
same,GE-HTS (composite Z-score),OXPHOS gene expression; Conc 20 μM,0.739
same,ROS (composite Z-score),reactive oxygen species; Conc 20 μM,0.820
same,ΔΨm (composite Z-score),[1]; Conc 20 μM,−0.571
same,cyt c (composite Z-score),cytochrome c; Conc 20 μM,0.117
same,mitoOX (composite Z-score),mtOXPHOS transcripts; Conc 20 μM,0.289
same,MTT (composite Z-score),[2]; Conc 20 μM,−1.004
CCOC(=O)c1oc2c(OC)c(O)cc(O)c2c(=O)c1-c1cc(OC)c(OC)c(OC)c1,Viability,C2C12 myotubes; [5],−1.124
same,nucOX,nuOXPHOS transcripts; [5],−1.229
same,GE-HTS,OXPHOS gene expression; [5],−1.306
same,ROS,reactive oxygen species; [5],0.244
same,ΔΨm,[1]; [5],−0.397
same,cyt c,cytochrome c; [5],−0.783
same,mitoOX,mtOXPHOS transcripts; [5],−1.218
same,MTT,[2]; [5],−0.761
COc1ccc(-c2cc(=O)c3c(O)cc(O[C@@H]4O[C@H](CO[C@@H]5O[C@@H](C)[C@H](O)[C@@H](O)[C@H]5O)[C@@H](O)[C@H](O)[C@H]4O)cc3o2)cc1O [diosmin],Viability,C2C12 myotubes; [4],−0.712
same,nucOX,nuOXPHOS transcripts; [4],−1.150
same,GE-HTS,OXPHOS gene expression; [4],−1.223
same,ROS,reactive oxygen species; [4],0.321
same,ΔΨm,[1]; [4],−0.501
same,cyt c,cytochrome c; [4],−0.433
same,mitoOX,mtOXPHOS transcripts; [4],−1.147
same,MTT,[2]; [4],−0.708
CN1CCc2cc3c(cc2[C@H]1[C@@H]1OC(=O)c2c1ccc1c2OCO1)OCO3 [(+)-bicuculline],Viability,C2C12 myotubes,−0.190
same,Viability,C2C12 myotubes; [6],−0.572
same,nucOX,nuOXPHOS transcripts; [6],−0.028
same,GE-HTS,OXPHOS gene expression; [6],−0.189
same,ROS,reactive oxygen species,0.256
same,ROS,reactive oxygen species; [6],0.428
same,ΔΨm,[1],−0.852
same,ΔΨm,[1]; [6],−0.945
same,cyt c,cytochrome c,0.300
same,cyt c,cytochrome c; [6],−0.116
same,mitoOX,mtOXPHOS transcripts; [6],−0.495
same,MTT,[2],−1.330
same,MTT,[2]; [6],−0.812
CC=Cc1ccc2c(c1)OCO2 [isosafrole],Viability,C2C12 myotubes; [5],−0.798
same,nucOX,nuOXPHOS transcripts; [5],−0.860
same,GE-HTS,OXPHOS gene expression; [5],−1.283
same,ROS,reactive oxygen species; [5],0.397
same,ΔΨm,[1]; [5],−1.060
same,cyt c,cytochrome c; [5],0.462
same,mitoOX,mtOXPHOS transcripts; [5],−1.917
same,MTT,[2]; [5],−0.913
COC(=O)C[C@H]1C(C)(C)C(=O)[C@@H]2CC3=C(CC[C@]4(C)C3=CC(=O)O[C@H]4c3ccoc3)[C@@]1(C)C2=O [carapin-8 (9)-ene],Viability (composite Z-score),C2C12 myotubes; Conc 20 μM,1.357
same,nucOX (composite Z-score),nuOXPHOS transcripts; Conc 20 μM,−0.003
same,GE-HTS (composite Z-score),OXPHOS gene expression; Conc 20 μM,0.121
same,ROS (composite Z-score),reactive oxygen species; Conc 20 μM,0.766
same,ΔΨm (composite Z-score),[1]; Conc 20 μM,−0.223
same,cyt c (composite Z-score),cytochrome c; Conc 20 μM,0.412
same,mitoOX (composite Z-score),mtOXPHOS transcripts; Conc 20 μM,0.284
same,MTT (composite Z-score),[2]; Conc 20 μM,−1.272
O=C(COc1ccc(Cl)cc1)N1CCN(Cc2ccc3c(c2)OCO3)CC1 [fipexide],Viability,C2C12 myotubes,−0.617
same,Viability,C2C12 myotubes; [7],0.721
same,nucOX,nuOXPHOS transcripts,0.163
same,nucOX,nuOXPHOS transcripts; [7],−0.010
same,GE-HTS,OXPHOS gene expression,0.169
same,GE-HTS,OXPHOS gene expression; [7],−0.241
same,ROS,reactive oxygen species,0.307
same,ROS,reactive oxygen species; [7],0.873
same,ΔΨm,[1],−0.624
same,ΔΨm,[1]; [7],−0.354
same,cyt c,cytochrome c,0.573
same,cyt c,cytochrome c; [7],−0.071
same,mitoOX,mtOXPHOS transcripts,0.155
same,mitoOX,mtOXPHOS transcripts; [7],−0.657
same,MTT,[2],−0.924
same,MTT,[2]; [7],−0.186
2-hydroxy-5 (6)epoxy-tetrahydrocaryophyllene,Viability,C2C12 myotubes; [8],−0.772
same,nucOX,nuOXPHOS transcripts; [8],−0.447
same,GE-HTS,OXPHOS gene expression; [8],−0.347
same,ROS,reactive oxygen species; [8],0.074
same,ΔΨm,[1]; [8],−0.739
same,cyt c,cytochrome c; [8],0.236
same,mitoOX,mtOXPHOS transcripts; [8],−0.043
same,MTT,[2]; [8],−0.836
Cc1cc(O)c2c(O)c3c(O)cccc3cc2c1 [chrysarobin],Viability,C2C12 myotubes; [5],−0.685
same,nucOX,nuOXPHOS transcripts; [5],−1.387
same,GE-HTS,OXPHOS gene expression; [5],−1.153
same,ROS,reactive oxygen species; [5],0.805
same,ΔΨm,[1]; [5],−0.726
same,cyt c,cytochrome c; [5],−0.074
same,mitoOX,mtOXPHOS transcripts; [5],−0.401
same,MTT,[2]; [5],−1.646
